These results are taken from US20160214974A1 (SYNGENTA PARTICIPATIONS AG, priority 2013, published 2016).

Series [1] concerns Myzus persicae (Green Peach Aphid). Kind of series: Activity against Myzus persicae, sunflower leaf discs sprayed (Example B1). In kind it is in vivo. The following applies: foliar, 144 h, read-out: control of Myzus persicae (mortality). As for the experimental part: (§1) Activity Against Myzus persicae (Green Peach Aphid)
Sunflower leaf discs were placed on agar in a 24-well microtiter plate and sprayed with the test solutions at an application rate of 200 ppm. After drying, the leaf discs were infested with an aphid population of mixed ages. After an incubation period of 6 days, samples were checked for mortality.

The test system of series [2] is Q-biotype strain of Bemisia tabaci (Neonicotinoid resistant). Kind of series: Control of neonicotinoid and pyrethroid resistant tobacco whitefly (Example B4 b). In kind it is in vivo. The following applies: 72 h, read-out: control of the Q-biotype (Neonicotinoid resistant) strain of Bemisia tabaci.
Series [3] concerns Bemisia tabaci (Cotton White Fly). The series can be described thus: Activity against Bemisia tabaci, cotton leaf discs sprayed (Example B3). It counts as in vivo. The following applies: foliar, 144 h, read-out: control of Bemisia tabaci (mortality). As for the experimental part:
Activity Against Bemisia tabaci (Cotton White Fly)
Cotton leaf discs were placed on agar in a 24-well microtiter plate and sprayed with test solutions at an application rate of 200 ppm. After drying, the leaf discs were infested with 12 to 18 adults. After an incubation period of 6 days after infestation, samples were checked for mortality.

For series [4], the system named is Myzus persicae (Green Peach Aphid). Kind of series: Activity against Myzus persicae, pea seedlings with roots in test solution (Example B2). In kind it is in vivo. The following applies: 144 h, read-out: control of Myzus persicae (mortality).
Source text: as §1
Pea seedlings, infested with an aphid population of mixed ages, were placed with the roots directly in the test solutions at an application rate of 24 ppm. 6 days after introduction, samples were checked for mortality.

[5] abbreviates: sunflower leaf discs sprayed at 200 ppm, mixed age aphids, 6 days.
Setting [6] is: cotton leaf discs sprayed at 200 ppm, adults, 6 days.

Where two headings read alike, the source gives them in different places. Where only a bound is given, the exact number is not on record here.

By melting point is commonly meant the temperature of the solid-liquid transition. `CC(C)(C)OC(=O)N1[C@@H]2CC[C@H]1C[C@](C(N)=S)(c1cncc(Br)c1)C2` returned a melting point of 228 to 230 °C.
Broadly, the mortality is the share of the test organisms that died. `NC(=S)[C@@]1(c2cncc(Cl)c2)C[C@H]2C=C[C@@H](C1)N2CC(F)F` [E.001, (1R,5S)-3-(5-chloro-3-pyridyl)-8-(2,2-difluoroethyl)-8-azabicyclo[3.2.1]oct-6-ene-3-carbothioamide]: the mortality at 200 ppm in series [1] and in series [3] was no less than 80% each time. Besides, the pest or weed control at 200 ppm in series [2] (200 ppm) is no less than 80%. For the same compound, the mortality at 24 ppm in series [4] is no less than 80%.
As to `NC(=S)[C@@]1(c2cncc(Cl)c2)C[C@H]2CC[C@@H](C1)N2CC(F)(F)F` [E.002, (1S,5R)-3-(5-chloro-3-pyridyl)-8-(2,2,2-trifluoroethyl)-8-azabicyclo[3.2.1]octane-3-carbothioamide], the mortality at 200 ppm in series [1] and in series [3] was no less than 80% each time. Further, in series [2], the pest or weed control at 200 ppm was no less than 80%.
With `C=C(Cl)CN1[C@@H]2CC[C@H]1C[C@](C(N)=S)(c1cncc(Br)c1)C2` [E.006, (1S,5R)-3-(5-bromo-3-pyridyl)-8-(2-chloroallyl)-8-azabicyclo[3.2.1]octane-3-carbothioamide], the mortality at 200 ppm in series [1] and in series [3] was no less than 80% throughout. Moreover, in series [2], the pest or weed control at 200 ppm is no less than 80%. Besides, in series [4], the mortality at 24 ppm was no less than 80%.
In the case of `NC(=S)[C@@]1(c2cncc(Br)c2)C[C@H]2CC[C@@H](C1)N2CC(F)(F)F` [E.007, (1S,5R)-3-(5-bromo-3-pyridyl)-8-(2,2,2-trifluoroethyl)-8-azabicyclo[3.2.1]octane-3-carbothioamide], the mortality at 200 ppm in series [1] and in series [3] was no less than 80% throughout.
Turning to `NC(=S)[C@@]1(c2cncc(Br)c2)C[C@H]2C=C[C@@H](C1)N2CCCC(F)(F)F` [E.008, (1R,5S)-3-(5-bromo-3-pyridyl)-8-(4,4,4-trifluorobutyl)-8-azabicyclo[3.2.1]oct-6-ene-3-carbothioamide], the mortality at 200 ppm in series [1] and in series [3] was no less than 80% in each case. The pest or weed control at 200 ppm in series [2] (200 ppm) is no less than 80%. Also, the mortality at 24 ppm in series [4] is no less than 80%.
As for `N#Cc1cncc([C@]2(C(N)=S)C[C@H]3CC[C@@H](C2)N3CC(F)(F)F)c1` [E.009, (1S,5R)-3-(5-cyano-3-pyridyl)-8-(2,2,2-trifluoroethyl)-8-azabicyclo[3.2.1]octane-3-carbothioamide], the mortality at 200 ppm in series [1] and in series [3] was no less than 80% each time. For the same compound, the pest or weed control at 200 ppm in series [2] is no less than 80%.
As to `NC(=S)[C@@]1(c2cncc(Br)c2)C[C@H]2CC[C@@H](C1)N2` [E.010, (1R,5S)-3-(5-bromo-3-pyridyl)-8-azabicyclo[3.2.1]octane-3-carbothioamide], the mortality at 200 ppm in series [1] (setting [5]) and in series [3] (setting [6]) was no less than 80% in each case. Further, in series [4] (pea seedlings, roots in test solution at 24 ppm, 6 days), the mortality at 24 ppm is no less than 80%.
With `C=C(Cl)CN1[C@@H]2C=C[C@H]1C[C@](C(N)=S)(c1cncc(C#N)c1)C2` [E.012, (1 S,5R)-8-(2-chloroallyl)-3-(5-cyano-3-pyridyl)-8-azabicyclo[3.2.1]oct-6-ene-3-carbothioamide], the pest or weed control at 200 ppm in series [2] (200 ppm) is no less than 80%. In addition, the mortality at 24 ppm in series [4] was no less than 80%.
On to `C=C(Cl)CN1[C@@H]2C=C[C@H]1C[C@](C(N)=S)(c1cncc(Br)c1)C2` [E.013, (1R,5S)-3-(5-bromo-3-pyridyl)-8-(2-chloroallyl)-8-azabicyclo[3.2.1]oct-6-ene-3-carbothioamide], for which the mortality at 200 ppm in series [1] and in series [3] was no less than 80% each time. The pest or weed control at 200 ppm in series [2] (200 ppm) is no less than 80%.
Consider `NC(=S)[C@@]1(c2cncc(Br)c2)C[C@H]2C=C[C@@H](C1)N2` [E.015, (1S,5R)-3-(5-bromo-3-pyridyl)-8-azabicyclo[3.2.1]oct-6-ene-3-carbothioamide], for which the mortality at 200 ppm in series [1] (setting [5]) and in series [3] (setting [6]) was no less than 80% throughout.
Regarding `NC(=S)[C@@]1(c2cncc(C3CC3)c2)C[C@H]2CC[C@@H](C1)N2CC(F)(F)F` [E.023], the mortality at 200 ppm in series [1] (setting [5]) is no less than 80%.
`NC(=S)[C@@]1(c2cncc(I)c2)C[C@H]2C=C[C@@H](C1)N2` [E.034, (1S,5R)-3-(5-iodo-3-pyridyl)-8-azabicyclo[3.2.1]oct-6-ene-3-carbothioamide]: the mortality at 200 ppm in series [1] (setting [5]) and in series [3] (setting [6]) was no less than 80% each time.
On to `NC(=S)[C@@]1(c2cncc(I)c2)C[C@H]2C=C[C@@H](C1)N2CC(F)F` [E.039, (1 S,5R)-8-(2,2-difluoroethyl)-3-(5-iodo-3-pyridyl)-8-azabicyclo[3.2.1]oct-6-ene-3-carbothioamide], for which the mortality at 200 ppm in series [1] and in series [3] was no less than 80% in each case. Besides, in series [2] (200 ppm), the pest or weed control at 200 ppm was no less than 80%. In addition, in series [4], the mortality at 24 ppm was no less than 80%.
Consider `NC(=S)[C@@]1(c2cncc(I)c2)C[C@H]2C=C[C@@H](C1)N2CC(F)(F)F` [E.060, (1R,5S)-3-(5-iodo-3-pyridyl)-8-(2,2,2-trifluoroethyl)-8-azabicyclo[3.2.1]oct-6-ene-3-carbothioamide], for which the mortality at 200 ppm in series [1] (setting [5]) and in series [3] (setting [6]) was no less than 80% each time.
With `C=CCN1[C@@H]2C=C[C@H]1C[C@](C(N)=S)(c1cncc(I)c1)C2` [E.063, (1R,5S)-8-allyl-3-(5-iodo-3-pyridyl)-8-azabicyclo[3.2.1]oct-6-ene-3-carbothioamide], the mortality at 200 ppm in series [1] and in series [3] was no less than 80% in each case. In series [2] (200 ppm), the pest or weed control at 200 ppm is no less than 80%. For the same compound, in series [4], the mortality at 24 ppm was no less than 80%.
For the compound `C[Si](C)(C)C#Cc1cncc([C@]2(C(N)=S)C[C@H]3C=C[C@@H](C2)N3CC(F)(F)F)c1` [E.068, (1R,5S)-8-(2,2,2-trifluoroethyl)-3-[5-(2-trimethylsilylethynyl)-3-pyridyl]-8-azabicyclo[3.2.1]oct-6-ene-3-carbothioamide], the mortality at 200 ppm in series [1] (setting [5]) was no less than 80%.
As for `C#Cc1cncc([C@]2(C(N)=S)C[C@H]3C=C[C@@H](C2)N3CC(F)(F)F)c1` [E.070, (1R,5S)-3-(5-ethynyl-3-pyridyl)-8-(2,2,2-trifluoroethyl)-8-azabicyclo[3.2.1]oct-6-ene-3-carbothioamide], the mortality at 200 ppm in series [1] (setting [5]) was no less than 80%.
For `NC(=S)[C@@]1(c2cncc(F)c2)C[C@H]2C=C[C@@H](C1)N2CC(F)F` [E.071, (1R,5S)-8-(2,2-difluoroethyl)-3-(5-fluoro-3-pyridyl)-8-azabicyclo[3.2.1]oct-6-ene-3-carbothioamide], the mortality at 200 ppm in series [1] and in series [3] was no less than 80% each time. The pest or weed control at 200 ppm in series [2] (200 ppm) was no less than 80%. Further, in series [4], the mortality at 24 ppm was no less than 80%.
Turning to `NC(=S)[C@@]1(c2cncc(I)c2)C[C@H]2CC[C@@H](C1)N2CC(F)F` [E.072, (1 S,5R)-8-(2,2-difluoroethyl)-3-(5-iodo-3-pyridyl)-8-azabicyclo[3.2.1]octane-3-carbothioamide], the mortality at 200 ppm in series [1] and in series [3] was no less than 80% in each case. For the same compound, in series [2], the pest or weed control at 200 ppm is no less than 80%. The mortality at 24 ppm in series [4] was no less than 80%.
For `O=[N+]([O-])NC1=NCCN1Cc1ccc(Cl)nc1` [Imidacloprid, reference compound], the pest or weed control at 200 ppm in series [2] is less than 80%.
On the same count and under the same terms, the figure for `N#C/N=C1\SCCN1Cc1ccc(Cl)nc1` [Thiacloprid, reference compound] is less than 80%.
